Values after ≈ are worked out from the molar mass of the structure shown.

For this assay, the system named is C. albicans Gu5.
In turn, `CC[C@H](C)[C@H](NC(=O)[C@H](CCCCN)NC(=O)[C@H](CCCCN)NC(=O)[C@H](C)NC(=O)[C@H](CC(C)C)NC(=O)[C@H](C)NC(=O)[C@H](C)NC(=O)[C@H](CC(C)C)NC(=O)[C@H](C)NC(=O)[C@H](CCCCN)NC(=O)[C@H](CC(C)C)NC(=O)[C@H](CC(N)=O)NC(=O)[C@@H](NC(=O)[C@H](CCCCN)NC(=O)CNC(=O)[C@H](CC(C)C)NC(=O)[C@H](CC(C)C)NC(=O)[C@H](Cc1ccc(O)cc1)NC(=O)CNC(=O)[C@H](C)NC(=O)[C@@H](N)CSSC[C@H](NC(=O)c1cn2c3c(c(N4CCN(C)CC4)c(F)cc3c1=O)OC[C@@H]2C)C(=O)O)[C@@H](C)CC)C(=O)N[C@@H](CC(C)C)C(N)=O` [Compound 5, LVXC-S-S-CTP10-NH2] came in with an MIC50 of 12.5 µM (≈ 34.3 µg/mL).
Turning to `CC[C@H](C)[C@H](NC(=O)[C@H](CCCCN)NC(=O)[C@H](CCCCN)NC(=O)[C@H](C)NC(=O)[C@H](CC(C)C)NC(=O)[C@H](C)NC(=O)[C@H](C)NC(=O)[C@H](CC(C)C)NC(=O)[C@H](C)NC(=O)[C@H](CCCCN)NC(=O)[C@H](CC(C)C)NC(=O)[C@H](CC(N)=O)NC(=O)[C@@H](NC(=O)[C@H](CCCCN)NC(=O)CNC(=O)[C@H](CC(C)C)NC(=O)[C@H](CC(C)C)NC(=O)[C@H](Cc1ccc(O)cc1)NC(=O)CNC(=O)[C@H](C)N)[C@@H](C)CC)C(=O)N[C@@H](CC(C)C)C(N)=O` [TP10-NH2, transportan 10, reference compound], the MIC50 was found to be 100 µM (≈ 218 µg/mL).
On to `CC[C@H](C)[C@H](NC(=O)[C@H](CCCCN)NC(=O)[C@H](CCCCN)NC(=O)[C@H](C)NC(=O)[C@H](CC(C)C)NC(=O)[C@H](C)NC(=O)[C@H](C)NC(=O)[C@H](CC(C)C)NC(=O)[C@H](C)NC(=O)[C@H](CCCCN)NC(=O)[C@H](CC(C)C)NC(=O)[C@H](CC(N)=O)NC(=O)[C@@H](NC(=O)[C@H](CCCCN)NC(=O)CNC(=O)[C@H](CC(C)C)NC(=O)[C@H](CC(C)C)NC(=O)[C@H](Cc1ccc(O)cc1)NC(=O)CNC(=O)[C@H](C)NC(=O)CN1CCN(c2cc3c(cc2F)c(=O)c(C(=O)O)cn3C2CC2)CC1)[C@@H](C)CC)C(=O)N[C@@H](CC(C)C)C(N)=O` [Compound 1, CIP-CH2CO-TP10-NH2], for which the MIC50 worked out at 50 µM (≈ 128 µg/mL).
In the case of `CC[C@H](C)[C@H](NC(=O)[C@H](CCCCN)NC(=O)[C@H](CCCCN)NC(=O)[C@H](C)NC(=O)[C@H](CC(C)C)NC(=O)[C@H](C)NC(=O)[C@H](C)NC(=O)[C@H](CC(C)C)NC(=O)[C@H](C)NC(=O)[C@H](CCCCN)NC(=O)[C@H](CC(C)C)NC(=O)[C@H](CC(N)=O)NC(=O)[C@@H](NC(=O)[C@H](CCCCN)NC(=O)CNC(=O)[C@H](CC(C)C)NC(=O)[C@H](CC(C)C)NC(=O)[C@H](Cc1ccc(O)cc1)NC(=O)CNC(=O)[C@H](C)NC(=O)CCSSCCC(=O)N1CCN(c2cc3c(cc2F)c(=O)c(C(=O)O)cn3C2CC2)CC1)[C@@H](C)CC)C(=O)N[C@@H](CC(C)C)C(N)=O` [Compound 3, CIP-S-S-TP10-NH2], the MIC50 was determined as 12.5 µM (≈ 33.6 µg/mL).
Then `CC[C@H](C)[C@H](NC(=O)[C@H](CCCCN)NC(=O)[C@H](CCCCN)NC(=O)[C@H](C)NC(=O)[C@H](CC(C)C)NC(=O)[C@H](C)NC(=O)[C@H](C)NC(=O)[C@H](CC(C)C)NC(=O)[C@H](C)NC(=O)[C@H](CCCCN)NC(=O)[C@H](CC(C)C)NC(=O)[C@H](CC(N)=O)NC(=O)[C@@H](NC(=O)[C@H](CCCCN)NC(=O)CNC(=O)[C@H](CC(C)C)NC(=O)[C@H](CC(C)C)NC(=O)[C@H](Cc1ccc(O)cc1)NC(=O)CNC(=O)[C@H](C)NC(=O)c1cn2c3c(c(N4CCN(C)CC4)c(F)cc3c1=O)OC[C@@H]2C)[C@@H](C)CC)C(=O)N[C@@H](CC(C)C)C(N)=O` [Compound 4, LVX-TP10-NH2], with 25 µM (≈ 63.1 µg/mL); and `CC[C@H](C)[C@H](NC(=O)[C@H](CCCCN)NC(=O)[C@H](CCCCN)NC(=O)[C@H](C)NC(=O)[C@H](CC(C)C)NC(=O)[C@H](C)NC(=O)[C@H](C)NC(=O)[C@H](CC(C)C)NC(=O)[C@H](C)NC(=O)[C@H](CCCCN)NC(=O)[C@H](CC(C)C)NC(=O)[C@H](CC(N)=O)NC(=O)[C@@H](NC(=O)[C@H](CCCCN)NC(=O)CNC(=O)[C@H](CC(C)C)NC(=O)[C@H](CC(C)C)NC(=O)[C@H](Cc1ccc(O)cc1)NC(=O)CNC(=O)[C@H](C)NC(=O)[C@@H](N)CSSC[C@H](N)C(=O)N1CCN(c2cc3c(cc2F)c(=O)c(C(=O)O)cn3C2CC2)CC1)[C@@H](C)CC)C(=O)N[C@@H](CC(C)C)C(N)=O` [Compound 6, CIPC-S-S-CTP10-NH2], with 25 µM (≈ 67.9 µg/mL); and `CC[C@H](C)[C@H](NC(=O)[C@H](CCCCN)NC(=O)[C@H](CCCCN)NC(=O)[C@H](C)NC(=O)[C@H](CC(C)C)NC(=O)[C@H](C)NC(=O)[C@H](C)NC(=O)[C@H](CC(C)C)NC(=O)[C@H](C)NC(=O)[C@H](CCCCN)NC(=O)[C@H](CC(C)C)NC(=O)[C@H](CC(N)=O)NC(=O)[C@@H](NC(=O)[C@H](CCCCN)NC(=O)CNC(=O)[C@H](CC(C)C)NC(=O)[C@H](CC(C)C)NC(=O)[C@H](Cc1ccc(O)cc1)NC(=O)CNC(=O)[C@H](C)NC(=O)c1cn(C2CC2)c2cc(N3CCNCC3)c(F)cc2c1=O)[C@@H](C)CC)C(=O)N[C@@H](CC(C)C)C(N)=O` [Compound 2, CIP-TP10-NH2], with 25 µM (≈ 62.4 µg/mL).

Values taken from article PMC7369900 (International Journal of Molecular Sciences, 2020).
